Experimental data reported in patent US6740335B1, “Liposomal camptothecin formulations” (priority 1997, dated 2004).

Key:
[1] = test system: B16-F1 (Melanoma, murine); assay: 3H-thymidine incorporation cytotoxicity assay, B16-F1; format: cell-based; details: B16-F1, 24 h
Description: (§1) In vitro efficacy screening has been performed using GI147211 and liposomal formulations of GI147211. […] Standard tumor cell-based cytototoxicity assays assessing ^3H-thymidine incorporation were performed.
(§2) Tumor cells were seeded into 96-well tissue culture plates (1×10^4 cells/well)≡4 h prior to experimentation. […] Positive and negative (Tris treated) control groups were included on each assay plate. Tumor cells were then labeled with 0.25 μCi of [methyl-^3H] thymidine and incubated for 42 h under tissue culture conditions (37° C., 5% CO2, 100% relative humidity), except for C6, U251, A673 and B16-F1 cells which were incubated for 24 h. Cells were then lysed, harvested onto glass-fiber filters and unincorporated [methyl-^3H] thymidine removed by filter washing. Filters were processed for scintillation counting and cpm-^3H/well determined. […] Data are presented from multiple sets of experimentation, involving multiple liposomal formulations of GI147211.

[2] = test system: KB (oralpharyngial carcinoma); assay: 3H-thymidine incorporation cytotoxicity assay, KB; format: cell-based, human; details: 42 h
Description: as §1, §2

[3] = test system: SKOV-3 (ovarian carcinoma); assay: 3H-thymidine incorporation cytotoxicity assay, SKOV-3; format: cell-based, human; details: SKOV-3, 42 h
Description: as §1, §2

HT-29 (Colon) = assay: 3H-thymidine incorporation cytotoxicity assay, HT-29; format: cell-based, human; details: HT-29, 42 h
Description: as §1, §2

LS-513 (Cecum) = assay: 3H-thymidine incorporation cytotoxicity assay, LS-513; format: cell-based, human; details: LS-513, 42 h
Description: as §1, §2

MCF-7 (Breast) = assay: 3H-thymidine incorporation cytotoxicity assay, MCF-7; format: cell-based, human; details: MCF-7, 42 h
Description: as §1, §2

ES-2 (ovarian carcinoma) = assay: 3H-thymidine incorporation cytotoxicity assay, ES-2; format: cell-based, human; details: ES-2, 42 h
Description: as §1, §2

[4] = test system: DU-145 (prostate carcinoma); assay: 3H-thymidine incorporation cytotoxicity assay, DU-145; format: cell-based, human; details: DU-145, 42 h
Description: as §1, §2

U87-MG (Astrocytoma) = assay: 3H-thymidine incorporation cytotoxicity assay, U87-MG; format: cell-based, human; details: 42 h
Description: as §1, §2

LOX (melanoma) = assay: 3H-thymidine incorporation cytotoxicity assay, LOX; format: cell-based, human; details: 42 h
Description: as §1, §2

U937 (Lymphoma) = assay: 3H-thymidine incorporation cytotoxicity assay, U937; format: cell-based, human; details: U937, 42 h
Description: as §1, §2

A673 (Rhabdomyosarcoma) = assay: 3H-thymidine incorporation cytotoxicity assay, A673; format: cell-based, human; details: A673, 24 h
Description: as §1, §2

MDA-MB-468 (Breast) = assay: 3H-thymidine incorporation cytotoxicity assay, MDA-MB-468; format: cell-based, human; details: MDA-MB-468, 42 h
Description: as §1, §2

[5] = test system: H460 (Lung, Non-Small Cell); assay: 3H-thymidine incorporation cytotoxicity assay, H460; format: cell-based, human; details: H460, 42 h
Description: as §1, §2

ES2 Tumor Xenograft = assay: Repeat dose efficacy at equal toxic doses, ES2 xenograft; details: ES2, 16 mg/kg, days 1, 8 and 15
Description: In all the studies performed, subcutaneous tumors implanted on the anterior flank of nude mice were allowed to grow to an established size of 200+/−50 mm^3 prior to dosing drugs.
Drugs were dosed on days 1,8 and 15.

U251 (Glioblastoma) = assay: 3H-thymidine incorporation cytotoxicity assay, U251; format: cell-based, human; details: U251, 24 h
Description: as §1, §2

[6] = test system: KBV (oralpharyngial carcinoma, vincristine resistant phenotype); assay: 3H-thymidine incorporation cytotoxicity assay, KBV; format: cell-based, human; details: 42 h
Description: as §1, §2

BT-20 (Breast) = assay: 3H-thymidine incorporation cytotoxicity assay, BT-20; format: cell-based, human; details: BT-20, 42 h
Description: as §1, §2

Compound: CC[C@@]1(O)C(=O)OCc2c1cc1n(c2=O)Cc2cc3c(CN(C)C)c(O)ccc3nc2-1 [Topotecan]
- Median IC50 [1]: 0.393 µg/mL
- Median IC50 [2]: 0.0336 µg/mL
- Median IC50 [3]: 0.00518 µg/mL
- Median IC50 (HT-29 (Colon)): 0.00415 µg/mL
- Median IC50 (LS-513 (Cecum)): 0.016 µg/mL
- Median IC50 (MCF-7 (Breast)): 0.23 µg/mL
- Median IC50 (ES-2 (ovarian carcinoma)): 0.00389 µg/mL
- Median IC50 [4]: 0.0135 µg/mL
- Median IC50 (U87-MG (Astrocytoma)): 0.0216 µg/mL
- Median IC50 (LOX (melanoma)): 0.00492 µg/mL
- Median IC50 (U937 (Lymphoma)): 0.00903 µg/mL
- Median IC50 (A673 (Rhabdomyosarcoma)): 0.00604 µg/mL
- Median IC50 (MDA-MB-468 (Breast)): 0.0473 µg/mL
- Median IC50 [5]: 0.0209 µg/mL
- Cures (ES2 Tumor Xenograft): 0
- Log Cell Kill (ES2 Tumor Xenograft): 0.58
- Maximum Body Weight loss (ES2 Tumor Xenograft): 16%
- T − C (to reach 400% tumor volume increase) (ES2 Tumor Xenograft): 7.4 days
- Toxic Deaths (ES2 Tumor Xenograft): 3
- Median IC50 (U251 (Glioblastoma)): 0.0131 µg/mL
- Median IC50 [6]: 0.611 µg/mL
- Median IC50 (BT-20 (Breast)): 0.0035 µg/mL
